Source: patent US4425337A, “Adjuvants for rectal delivery of drug” (priority 1981, dated 1984)

Experiments:
in vivo = settings: rat, 10 mg/kg
Method: Method: Adult male Sprague/Dawley rats (anesthetized with ethylcarbamate) were given intra-rectal aqueous microenemas. Microenemas are defined as small volume (0.3 ml) aqueous solutions containing drug/adjuvant compounds, administered with a 1 cc syringe at an intra-rectal depth of 2.5 cm. Bioavailabilities versus intravenous administration were calculated as a measure of drug delivery according to the following formula: [formula] wherein

[1] = rat, in vivo; for % Bioavailability ± SEM, Gentamicin: 90 min
Method: (§1) Microenemas are defined as small volume (0.3 ml) aqueous solutions containing drug/adjuvant compounds, administered with a 1 cc syringe at an intra-rectal depth of 2.5 cm.
The cefoxitin or gentamicin was administered as sodium cefoxitin or gentamicin sulfate at 10 mg/kg body weight. The adjuvants were administered at 20 mg/kg body weight and n represents the number of animals.

[2] = rat, in vivo, 10 mg/kg, 1.5 h
Method: as §1
AUC means area under serum drug level curve from t=0 minutes to t=90 minutes.
Gentamicin bioavailability: Concentration curves for chlorpromazine and perphenazine in rat microenema rectal delivery system.

| Compound | % Bioavailability ± SEM, Gentamicin [1] | also measured |
| --- | --- | --- |
| CO[C@@]1(NC(=O)Cc2cccs2)C(=O)N2C(C(=O)O)=C(COC(N)=O)CS[C@@H]21 [Cefoxitin, (6R-cis)-3-[[(Aminocarbonyloxy]methyl]-7-methoxy-8-oxo-7-[(2-thienylacetyl))amino]-5-thia-1-azabicyclo [4.2.0]oct-2-ene-2-carboxylic acid] |  | bioavailability at 1.5 h (in vivo): 2 ± 0.6% |
| CN(C)CCCN1c2ccccc2Sc2ccc(Cl)cc21 [Chlorpromazine, chlorpromazine] | 107 ± 6.2% |  |
| Gentamicin |  | Control bioavailability (without adjuvant) [2]: 1 ± 0.7%; % Bioavailability ± SEM, Gentamicin (adjuvant: None) ([1]; 10 mg/kg, 1.5 h): 1 ± 0.7% |

Now from value to compound, other results behind:

| % Bioavailability ± SEM, Gentamicin [1] | Compound | also measured |
| --- | --- | --- |
| 115 ± 11.5% | CSc1ccc2c(c1)N(CCC1CCCCN1C)c1ccccc1S2 (stereo not shown) [Tiorioazine, thioridazine] |  |
| 100 ± 8.3% | OCCN1CCN(CCCN2c3ccccc3Sc3ccc(Cl)cc32)CC1 [Perphenazine, perphenazine] |  |
| 76 ± 10.9% | CN1CCN(CCCN2c3ccccc3Sc3ccc(Cl)cc32)CC1 [Prochlorperazine] |  |
